Results: patent US20020022617A1, “Methods for increasing nitric oxide synthase activity” (American Home Products Corporation, priority 2000, published 2002)

System: aortic rings of ovariectomized rats
Experiment: Basal NO release in isolated aortic rings of treated ovariectomized rats (phenylephrine curves before and after L-NAME)
Format: in vivo, Sprage-Dawley rats
Settings: for response of vessels to L-NAME after washout: 1 mg/kg/day by gastric gavage, 200 μM L-NAME, vehicle treated group had a significantly smaller response; for response of the vessels compared among intact, estradiol and TSE-424 treated groups / difference from vehicle treated group (basal NO release, separation of curves before and after L-NAME): 1 mg/kg/day; for response of the vessels compared among intact, estradiol and TSE-424 treated groups: all phenylephrine concentrations (except 0.01 μM phenylephrine TSE-424 treated group); for difference from vehicle treated group (basal NO release, separation of curves before and after L-NAME): at the 10 and 100 μM phenylephrine concentrations, p<0.05
Method: Sprage-Dawley rats (240-260 grams) were divided into 4 groups: (1) Normal non-ovariectomized (intact); (2) Ovariectomized (ovex) vehicle treated; (3) Ovariectomized 17-β estradiol treated (1 mg/kg/day); and (4) Ovariectomized TSE-424 treated (1 mg/kg/day). All animals were ovariectomized approximately 3 weeks prior to treatment. Each received 1 mg/kg/day of either 17-β estradiol sulfate or TSE-424 suspended in distilled, deionized water with 1% tween-80 by gastric gavage. Vehicle treated animals received an appropriate volume of the vehicle used in the drug treated groups.
Animals were euthanized by CO2 inhalation and exsanguination. Their thoracic aortas were rapidly removed and placed in 37° C. physiological solution with the following composition (mM): NaCl (54.7), KCl (5.0), NaHCO3 (25.0), MgCl2.2H2O (2.5), D-glucose (11.8) and CaCl2 (0.2) gassed with […] for a final pH of 7.4. The advantitia was removed from the outer surface and the vessel was cut into 2-3 mm wide rings. Rings were suspended in at 10 mL tissue bath with one end attached to the bottom of the bath and the other to a force transducer. A resting tension of 1 gram was placed on the rings.
After equilibration, the rings were exposed to increasing concentrations of phenylephrine (10^−8 to 10^−4 M) and the tension recorded. Baths were then rinsed 3 times with fresh buffer. After washout, 200 μM N′-nitro-L-arginine methyl ester hydrochloride (L-NAME) was added to the tissue bath and equilibrated for 30 minutes. The phenylephrine concentration response curve was then repeated.
Contraction amplitudes at each concentration of phenylephrine were normalized to the maximum phenylephrine-induced contraction before the addition of L-NAME and graphed. The amount of basal NO released was proportional to the degree of separation between the 2 curves before and after L-NAME. Statistical differences were at the p<0.05 level of significance using a repeated measures “Test of Effect Slices (SAS)” analysis of variance.

| SMILES | response of vessels to L-NAME after washout | response of the vessels compared among intact, estradiol and TSE-424 treated groups | difference from vehicle treated group (basal NO release, separation of curves before and after L-NAME) |
| --- | --- | --- | --- |
| C[C@]12CC[C@@H]3c4ccc(O)cc4CC[C@H]3[C@@H]1CC[C@@H]2O [estradiol, 17-β estradiol] | substantial contraction | indistinguishable | significantly different |
| Cc1c(-c2ccc(O)cc2)n(Cc2ccc(OCCN3CCCCCC3)cc2)c2ccc(O)cc12 [TSE-424, 1-[4-(2-Azepan-1yl-ethoxy)-benzyl]-2-(4-hydroxy-phenyl)-3-methyl-1H-indol-5-ol] | substantial contraction | indistinguishable | significantly different |
